Test results from US20070026090A1, “Treatment and prevention of inflammatory disease and mitochondrial dysfunction with high dose selenium” (priority 2003, published 2007).

What was measured:
[1] = test system: myeloperoxidase (MPO) activity; assay: Tissue inflammation: myeloperoxidase activity in colon tissue; type: in vivo, rat; conditions: supplemented rats, 24 h after TNBS; unsupplemented rats greater than 30-fold
Procedure: Tissue inflammation-Myeloperoxidase activity: Colonic tissue samples (approximately 100-120 mg) were collected 4 cm proximal to the anus. Each tissue sample was homogenized in a solution containing 0.5% hexa-decyl-trimethyl-ammonium bromide (HTAB) (Sigma-Aldrich Corp, St. Louis, Mo.) buffer (0.5% HTAB in 50 mM phosphate buffer, pH 6.0). Tissue samples were minced in a test tube containing 1 ml of HTAB buffer on ice and homogenized with a Polytron tissue homogenizer (Brinkmann Instruments, Inc, Westbury N.Y., USA). The pooled homogenates and washes were sonicated in water for 20 seconds. After three cycles of freeze-thawing, the sonicated samples were centrifuged in cold for 15 min. at 40,000×g. Myeloperoxidase activity (MPO) was assayed in the supernatant as described by Krawisz (Krawisz et al., 1984) after addition of O-dianizidine-HCl (Sigma-Aldrich Corp, St Louis, Mo.) and 0.15% (v/v) H2O2 as a substrate for the MPO. The rate of change in absorbance was measured spectrophotometrically at 460 nm, and is expressed as the amount of enzyme necessary to produce a change in absorbance of 1.0 unit per minute (1 unit) per gram wet weight tissue.

cytochrome c mRNA = assay: Cytochrome c mRNA in colon tissue (RT-PCR); type: in vivo, rat; conditions: 24 h after TNBS; supplemented (FIG. 7A lane 4)
NRF-1 = assay: NRF1 mRNA in colon tissue (RT-PCR); type: in vivo, rat
Procedure: Mitochondrial (mt) TFA, NRF1, and cytochrome c mRNA analysis: Total RNA was extracted from 50 to 100 mg tissue at a time using 1 ml of Tri Reagent® (Sigma-Aldrich Corp., St. Louis, Mo.) according to manufacturer's instructions. First strand cDNA synthesis was carried out using reverse-iTTM First Strand Synthesis from Advanced Biotechnologies (ABgene®, ABgene, Epsom, U.K.) was used according to the manufacturer's instructions. Target sequences were amplified in the PCR reaction as follows: each tube contained 37 ng of cDNA from cytochrome c, GAPDH, or 18S, 3 μl of specific primers, 12.5 μl of ready Mix and 6.5 μl water DEPC (for a total 25 μl in each tube).
The PCR for cytochrome c, NRF1 and mtTFA was run at 95° C. for 5 min, 94° C. for 30 sec, 56° C. for 2 min, 72° C. for 1 min, back to stage 2 for 22, 26, 24 cycles, respectively, then 72° C. for 10 min, and 4° C. The products of the PCR were separated on a 1% agarose gel in TAE buffer with ethidium bromide. The electrophoresis took place in a BioRad device in 1×TAE buffer at 95 V for about 50 min (maximum mA). The size of the cDNA was determined by a 100-bp marker.
Rat NFR-1: (Antisense) 5′-[…]-3′ (SEQ ID No. 13) corresponding to nucleotides 450 to 469 of rat NFR-1 (GenBank Accession No. XM231566).
(Sense): 5′-[…] -3′ (SEQ ID No. 14). The expected PCR product was 461 bp, the actual 461 bp.

J774.2 macrophages [2] = assay: Intracellular ROS (H2O2) production, DCF fluorescence; type: cell-based, murine
Procedure: (§1) Cell culture: Murine J774.2 macrophages (kindly provided by Prof. Dov Zipori from the Weizmann Institute of Science) were grown in RPMI medium supplemented with 10% (w/v) fetal calf serum, penicillin (100 U/ml), streptomycin (100 μg/ml) and 1× glutamine at 37° C. in a humidified atmosphere consisting of 95% air and 5% CO2. Experiments were performed on cells at 60% confluence.
Intracellular Radical Oxygen Species (ROS) (H2O2): Intracellular ROS were detected using dihydrodichlorofluorescein (H2DCF-DA). Cells exposed to different treatments were washed three times with PBS. Cells were centrifuged (2000 RPM, 5 min), resuspended in PBS and incubated with 25 μM H2DCF-DA for 30 min at 37° C. To detect intracellular fluorescence, the fluorochrome-loaded cells were excited using a 488-nm argon-ion laser in a flow cytometer. The dichlorofluorescein (DCF) emission was recorded at 530 nm. Data were collected from at least 10,000 cells. Alternatively, DCF fluorescence was recorded using a microfluorometer plate reader (GENios, Tecan, Austria). Cells were washed twice with PBS, then 25 μM H2DCF-DA was added and cells incubated for 30 min at 37° C. Following an additional wash, cells were lysed with PBS-0.2% Triton-X 100. Total fluorescence was recorded and calibrated according to protein content.

J774.2 macrophages [3] = assay: Type of cell death (annexin V-FITC / PI); type: cell-based, murine; conditions: 10 μM, 24 hours; annexin V-FITC and PI
Procedure: Experiments were performed on cells at 60% confluence.
Determination of type of cell death: Type of cell death was determined by dual staining with annexin V-FITC (Santa Cruz Biotechnology, Santa Cruz Calif., USA) and PI, and flow cytometric analysis. Cells were treated with 10 μM selenite for 24 h then collected and re-suspended in binding buffer (10 mM HEPES/NaOH, pH 7.4, 140 mM NaCl, 2.5 mM CaCl2). 2.5 μg/ml annexin V-FITC was added and cells were incubated for 30 min at room temperature, then 0.25 μg/ml PI was added and samples were analyzed by flow cytometry (FACSort, Becton Dickenson and. Co., San Jose, Calif. USA).

J774.2 macrophages [4] = assay: Mitochondrial membrane potential (CMTMRos, flow cytometry); type: cell-based, murine; conditions: 10 μM; LPS + INFγ activated (FIG. 16B)
Procedure: as §1
Evaluation of mitochondrial membrane potential (MMP) in cells—MMP was detected by flow cytometry (FACSort, Becton Dickenson and Co., San Jose, Calif. USA) using the membrane potential-sensitive fluorescent probe MitoTracker Orange (CMTMRos) (Molecular Probes, Oregon, USA). The following fluorescence setting was used: excitation at 488 nm and emission at 575 nm (FL2 channel) (24,25). Macrophage cells (1 million cells/ml) were stained with 0.1 μM CMTMRos for 30 min at 37° C. Accumulation of the dye in the mitochondria was evaluated by flow cytometer analysis as described hereinabove. Data were collected from 10,000 cells.

[5] = test system: hapten (TNBS)-induced colitis
Procedure: Animals: Male Sprague-Dawley rats (approximately 150 g bw) received food and water ad libitum. They were kept in plastic cages with wire tops in a light-controlled room.
High-dose dietary selenium supplementation: Rats received food and (unsupplemented) water ad libitum (control group). Normal selenium (control) diet included 0.2 mg selenium/kg chow. […] The high-selenium diet provided approximately 2-3 μ/gm day of selenium per animal, which is considered an acceptable excess supplementation diet for this element (Davis et al., 1998; Shilo et al., 2003).
Induction of colitis and sample collection: Colitis was induced by administration of 0.5 ml of 2,4,6-trinitrobenzene sulphonic acid (TNBS, 100 mg/ml dissolved in 50% ethanol)through the anal canal, at a distance of 8 cm into the colon, just proximal to the splenic flexure. 24 hours after induction animals were sacrificed and the colon was removed for pathology, histocytological, biochemical or immunohistocytological analysis (Reifen et al., 2000).

[6] = test system: myocarditic Coxsackie virus B3; conditions: 5 ppm in the water; cited from earlier work

For `[Se]` [selenium], the “myeloperoxidase elevation following hapten administration, compared to uninduced controls” value [1] was “approximately 5 fold”, the “effect of TNBS-induced colitis on cytochrome c mRNA levels” value (cytochrome c mRNA) was “completely prevented” and the “NRF-1 levels in colon tissue, colitis-induced rats” value (NRF-1; 24 h after TNBS, supplemented (FIG. 17 lane 4), unsupplemented nearly 50% reduction) was “surpass that of healthy control rats”. The “NRF-1 levels in colon tissue, healthy rats” value (NRF-1; healthy supplemented rats (FIG. 17 lane 2)) was “significantly enhances”, the “ROS (H2O2) production over the concentration range” value (J774.2 macrophages [2]; 0.5-30 μM, resting J774.2 (FIG. 8A)) was “reduced ROS production in a dose-dependent manner” and the “ROS production in activated macrophages” value (J774.2 macrophages [2]; LPS 10 ng/ml + INFγ 50 units/ml 24 h, then 10 μM (FIG. 16A)) was “reduces”. For the same molecule, the “decrease in peroxide production (DCF fluorescence)” value (J774.2 macrophages [2]; at 30 μM, resting J774.2 (FIG. 8A)) was > 30%, the “character of cell death” value (J774.2 macrophages [3]) was “cell death with necrotic characteristics” and the “mitochondrial membrane potential (MMP), activated macrophages” value (J774.2 macrophages [4]) was “downregulates”. For the same molecule, the “necrosis, share of the colon (gross pathology)” value ([5]; 24 h after TNBS, 3 weeks high-dose supplementation, unsupplemented rat more than 80%) was “less than 15%”, the “effects on colon tissue of healthy, uninduced rats (gross pathology)” value ([5]; rat, in vivo) was “no apparent effects” and the “inflammatory lesions and necrosis” value [6] was “no effect”.
